Test results from patent EP0934249B1, “CONFORMATIONALLY RESTRICTED POLYAMINES AND THEIR USE AS ANTINEOPLASTIC AGENTS” (WISCONSIN ALUMNI RESEARCH FOUNDATION, priority 1996, dated 1998).
Where a name gives a salt, the structure may show the parent alone.

What was measured:
Assay type in all cases: cell-based
MCF7 [1] = assay: colony formation (plating efficiency) cell survival assay, standard protocol of Examples 1-8; details: Homo sapiens; survival of cultured breast cancer cells MCF7; 4 hours drug exposure, colonies counted day 15-20; read-out: ED50 (the source's name)
Method: (§1) Human breast cancer cell line MCF7 was grown in Richter's Improved Modified Eagle's Medium supplemented with 10% fetal bovine serum (FBS) and 2.2 g/L sodium bicarbonate. Human brain cancer cell line U251MG-NCI was grown in Dulbecco's Modified Eagle's Medium supplemented with 10% FBS. Human lung cancer cell line A549 was grown in Ham's F-12K medium (Fisher Scientific, Itasca, Illinois), supplemented with 10% FBS and 2 mM L-glutamine. Human colon cancer cell line HT29 was cultured in McCoy's 5A medium (Gibco, BRL, Gaithersburg, Maryland), supplemented with 10% FBS. Human prostate cancer cell line PC3 was grown in Dulbecco's Modified Eagles Medium supplemented with 5% FBS. The A549 and MCF7 cell lines were cultured in 100 units/mL penicillin and 100 µg/mL streptomycin. HT29 and U251MG cell lines were grown in 50 µg/mL gentamycin. PC3 cell lines were maintained in 1% antibiotic-antimycotic solution (Sigma, St. Louis, Missouri). The cell cultures were maintained at 37°C in 5% CO2/95% humidified air. All cell cultures are available from the American Type Culture Collection, Rockville, Maryland.
Ten standard culture flasks for each drug to be tested were plated with 5 x 10^5 cells of a given type in 5 mL of media and allowed to incubate for 16-24 hours at 37°C.
Fresh stocks of the compounds to be evaluated are prepared. For each drug, two of the ten culture flasks prepared on Day 1 are used as controls. The control flasks are treated with solvent only. Four flasks for each compound are then treated with serially-diluted concentrations of the compound. The remaining flasks are left untouched. The cells are incubated for 4 hours at 37°C.
After 4 hours the control flasks are counted (2 counts for each flask) and the cells per mL calculated based on the average of the control counts. The cells are then re-plated into six 60 mm dishes for each flask from dilutions based on the cells/mL of the control. (In the various test runs, cell concentrations ranged from approximately 50 to approximately 800 cells per mL.)
The cells are monitored for colony formation. When visible, the cells are stained with 0.5% crystal violet (in 95% EtOH) and counted. The plating efficiency for each dish is then calculated. The plating efficiencies of the six dishes for each flask are averaged and the standard deviation is calculated. The fraction of cell survival at each concentration is determined based on the controls.

MCF7 [2] = assay: MTT assay, percent cell survival; details: Homo sapiens, MCF7, 144 h; drug concentration that killed 50% of the cultured cells; MTT six days after drug treatment; read-out: ID50(µM) MCF7
Method: as §1
(§2) Here, a conventional MTT assay was used to evaluate percent cell survival. Exponentially growing monolayer cells were plated in 96-well plates at a density of 500 cells per well and allowed to grow for 24 hours. Serial dilutions of the drugs were added to the wells. Six days after drug treatment, 25 µl of MTT solution (5 mg/ml) was added to each well and incubated for 4 hours at 37°C. Then 100 µl of lysis buffer (20% sodium dodecyl sulfate, 50% DMF, and 0.8% acetic acid, pH 4.7) was added to each well and incubated for an additional 22 hours. A microplate reader ("EMAX"-brand, Molecular Devices, Sunnyvale, California) set at 570 nm was used to determine the optical density of the cultures. Results are expressed as a ratio of the optical density in drug-treated wells to the optical density in wells treated with vehicle only.
(§3) The ID50 is the drug concentration that killed 50% of the cultured cells.

PC-3 = assay: MTT assay, percent cell survival; details: Homo sapiens, PC-3, 144 h; drug concentration that killed 50% of the cultured cells; MTT six days after drug treatment; read-out: ID50(µM) PC-3
Method: as §1, §2, §3

HT-29 = assay: MTT assay, percent cell survival; details: Homo sapiens, HT-29, 144 h; drug concentration that killed 50% of the cultured cells; MTT six days after drug treatment; read-out: ID50(µM) HT-29
Method: as §1, §2, §3

A549 = assay: MTT assay, percent cell survival; details: Homo sapiens, A549, 144 h; drug concentration that killed 50% of the cultured cells; MTT six days after drug treatment; read-out: ID50(µM) A549
Method: as §1, §2, §3

U251MG NCl = assay: MTT assay, percent cell survival; details: Homo sapiens, U-251, 144 h; drug concentration that killed 50% of the cultured cells; MTT six days after drug treatment; read-out: ID50(µM) U251MG NCl
Method: as §1, §2, §3

Row | Structure (SMILES) | EC50 (MCF7 [1]) [nM] | IC50 (MCF7 [2]) [µM] | IC50 (PC-3) [µM] | IC50 (HT-29) [µM] | IC50 (A549) [µM] | IC50 (U251MG NCl) [µM]
1 | CCNCCCNC[C@@H]1C[C@@H]1CNCCCNCC [SL-11037, N-Ethyl-N'-(2-(3'-ethylamino-propylaminomethyl)-cis-cyclopropylmethyl)-propane 1,3-diamine tetrahydrochloride] | 1640 | > 31.2 | 7.4 | 1.6 | 0.12 | 
2 | CCNCCCNCC1CC1CNCCCNCC (stereo not drawn) [SL-11038, N-Ethyl-N'-(2-(3'-ethylamino-propylaminomethyl)-trans-cyclopropylmethyl)-propane-1,3-diamine tetrahydrochloride] | 1340 | > 31.2 | 12.4 | 1.4 | 0.25 | 
3 | CCNCCCNC[C@H]1CC[C@H]1CNCCCNCC [SL-11043, N-Ethyl-N'-(2-(3'-ethylamino-propylaminomethyl)-cis-cyclobutylmethyl)-propanel,3-diamine tetrahydrochloride] | 1640 | 25.5 | > 31.2 | 1.5 |  | 
4 | CCNCCCNCC1CCC1CNCCCNCC (stereo not drawn) [SL-11044, N-Ethyl-N'-(2-(3'-ethylamino-propylaminomethyl)-trans-cyclobutylmethyl)-propane1,3-diaminetetrahydrochloride] | 1790 | > 31.2 | > 31.2 | 1.6 |  | 0.12
5 | CCNCCCNC/C=C\CNCCCNCC [SL-11047, N,N^1-bis(3-ethylaminapropyl)-(Z)-but-2-ene-1,4-diamine tetrahydrochloride] | 1490 | 9.5 | 3.6 | 1.6 | 0.25 | 0.55
6 | CCNCCCNC/C=C/CNCCCNCC [SL-11048, N,Nl-bis(3-ethylaminopropyl)-(E)-but-2-ene-1,4-diamine tetrahydrochloride, reference compound] | 1490 | > 31.2 | 1.4 | 1.4 | 0.26 | 2
